Experimental data as given in EP4810052A2, “HCRHR2 SELECTIVE POLYPEPTIDES” (Gubra A/S, priority 2023, dated 2026).
Marks after values point to notes of the source that are not given here. Starred links: 1 amine or outer side, 2 acyl side, 3 side chain; linkers in the order of their positions; H or OH if unused. Non-standard residues stand in square brackets, D forms with d. Residues, ends and D or L forms follow the SMILES beside them. Groups on a side chain read outwards from the residue. *: point of attachment. C20 diacid = O=C(O)CCCCCCCCCCCCCCCCCCC(=O)*; γGlu = O=C(O)[C@H](CCC(=O)[*:2])N[*:1]; Nle = CCCC[C@H](N)C(=O)O; AEEA = NCCOCCOCC(=O)O; Aib = CC(C)(N)C(=O)O

Tests used:
[1] = Dynamic Light Scattering (DLS) of peptide oligomerisation/particle formation; format: physicochemical; settings: average of three replica
Description: Samples were prepared by dissolving 800 nmol of each peptide in 400 µl 50 mM phosphate pH 8.0 to a concentration of 2000 µM (ca 10 mg/ml). After fully dissolution for 2 hours on a rocking table, samples were adjusted to pH 7.5 and filtrated through a 0.2 µm Whatman Anotop filter. Comparators were commercially available liraglutide drug product (Victoza®, Novo Nordisk) pH 8.2, and an aliquot of this drug product adjusted to pH 6.7. These samples were filtrated through a 0.02 µm Whatman Anotop filter.
Samples were pipetted as triplicate of 30 µl to an Aurora 384 well microtiter plate, which was centrifuged for 2 minutes at 2200 rpm and then sealed with a Thermo sealing tape 235307. DLS measurements were done in a Wyatt DynaPro platereader III with the following parameters:
The microtiter plate was incubated in a Grant-bio Thermo Shaker PHMP-4 at 40°C with 700 rpm continuous shaking before subsequent DLS measurements. Data analysis was done using Wyatt Dynamics software ver. 7.10.1.21.
Samples were prepared and measured as described in procedure. The hydrodynamic radii (Rh) and associated polydispersity (PD) resulting from cumulant analysis (assuming one species) are shown in the Table 8 as averages of three replica. T0 indicates the measurement at time zero after sample preparation; T5 indicates the measurements of five days of incubation as described above.

[2] = Body mass and body fat content in mouse model of diet-induced obesity (DIO); format: in vivo; settings: DIO mice; for relative body weight: 28 days, compared to vehicle; for Body weight at termination / Fat mass change from baseline / Lean mass change from baseline / Relative body weight change at termination / BW at termination: ± SEM
Description: SEQ ID NO: 3, SEQ ID NO: 6, SEQ ID NO: 238, SEQ ID NO: 16 and SEQ ID NO: 215 were assessed for their ability to reduce body mass and body fat content in a mouse model of diet-induced obesity (DIO).
Male C57BL/6JRj mice were obtained from JanVier (JanVier Labs, France) at 5 weeks of age. The animals were group-housed during obesity induction and then single housed 2 weeks prior to study start. They were housed under a 12/12 h dark-light cycle, light off at 3 PM. Room temperature was controlled to 22°C ± 1°C, with 60 % ± 20% humidity. For 22-23 weeks prior to treatment start and throughout the study, the animals had ad libitum access to high-fat diet (60% kcal fat, D12492, Research Diets) and tap water.
The animals were randomized according to lean mass (EchoMRI) and body weight. Animals were dosed subcutaneously […] for 30-32 days. In study 1, the animals were dosed with vehicle or SEQ ID NO: 3 (10, 30, 60 or 100 nmol/kg). In study 2, the animals were dosed with vehicle or SEQ ID NO: 6 (10 or 30 nmol/kg), SEQ ID NO: 238 (10 or 30 nmol/kg), SEQ ID NO: 16 (10 or 30 nmol/kg), SEQ ID NO: 215 (10 or 30 nmol/kg) or SEQ ID NO: 3 (30 nmol/kg).
Body weight and food intake were recorded daily until day 28 and body composition evaluated on day 26 using EchoMRI. At termination, blood for HbA1c analyses were collected and M. gastrocnemius and M. soleus were weighed.
Statistical significance was evaluated using One-way analysis of variance with Dunnett's multiple comparison test. P < 0.05 was considered statistically significant.

[3] = T0, time zero after sample preparation
[4] = T5, five days incubation at 40°C with continuous shaking

CCCC[C@H](NC(=O)[C@@H](NC(=O)[C@H](CCC(=O)O)NC(=O)[C@H](C)NC(=O)[C@H](CC(N)=O)NC(=O)C(C)(C)NC(=O)[C@H](CCCCNC(=O)COCCOCCNC(=O)COCCOCCNC(=O)CC[C@H](NC(=O)CC[C@H](NC(=O)CCCCCCCCCCCCCCCCCCC(=O)O)C(=O)O)C(=O)O)NC(=O)[C@H](C)NC(=O)[C@H](CCC(N)=O)NC(=O)[C@H](CCC(=O)O)NC(=O)[C@H](CCCNC(=N)N)NC(=O)[C@H](C)NC(=O)[C@H](C)NC(=O)[C@H](CCCNC(=N)N)NC(=O)[C@H](C)NC(=O)[C@H](CCCNC(=N)N)NC(=O)[C@H](C)NC(=O)[C@H](CCC(N)=O)NC(=O)[C@H](CO)NC(=O)[C@H](CC(C)C)NC(=O)[C@H](CC(C)C)NC(=O)[C@@H](NC(=O)[C@H](CCC(N)=O)NC(=O)[C@H](CC(C)C)NC(=O)[C@H](CC(C)C)NC(=O)CNC(=O)[C@@H](NC(=O)[C@@H]1CCCN1C(=O)[C@@H](NC(=O)[C@H](CC(=O)O)NC(=O)[C@H](CC(C)C)NC(=O)[C@H](CO)NC(=O)[C@H](CC(C)C)NC(=O)[C@@H](NC(=O)[C@@H]1CCCN1)C(C)C)C(C)C)[C@@H](C)CC)[C@@H](C)CC)[C@@H](C)CC)C(=O)N[C@@H](C)C(=O)N[C@@H](CCC(=O)O)C(=O)N[C@H](C(N)=O)C(C)C [SEQ ID NO: 238] (H-PVLSLDVPIGLLQILLSQARARAAREQAK([AEEA-AEEA-γGlu-γGlu-C20 diacid])[Aib]NAEI[Nle]AEV-NH2)
PD (%) [1, 3]: 5.3% | Rh (nm) [1, 3]: 4.8 nm | PD (%) [1, 4]: 8.1% | Rh (nm) [1, 4]: 4.8 nm | relative body weight [2]: prolonged dose-dependent reduction | Blood HbA1c ([2]; Table 17 study, 10 nmol/kg): 4.3 ± 0.04 % | M. Gastrocnemius ([2]; Table 17 study, 10 nmol/kg): 0.18 ± 0.001 g | M. Soleus ([2]; Table 17 study, 10 nmol/kg): 0.012 ± 0.0003 g | Body weight at termination ([2]; Table 17 study, 10 nmol/kg): 39.1 ± 0.7 g | Fat mass change from baseline ([2]; Table 17 study, 10 nmol/kg): -9.5 ± 0.6 g | Lean mass change from baseline ([2]; Table 17 study, 10 nmol/kg): -0.4 ± 0.2 g | Relative body weight change at termination ([2]; Table 17 study, 10 nmol/kg): 82.3 ± 1.2 % | Blood HbA1c ([2]; Table 17 study, 30 nmol/kg): 4.4 ± 0.1 % | M. Gastrocnemius ([2]; Table 17 study, 30 nmol/kg): 0.18 ± 0.004 g | M. Soleus ([2]; Table 17 study, 30 nmol/kg): 0.011 ± 0.0007 g | Body weight at termination ([2]; Table 17 study, 30 nmol/kg): 37.4 ± 0.9 g | Fat mass change from baseline ([2]; Table 17 study, 30 nmol/kg): -10.7 ± 0.3 g | Lean mass change from baseline ([2]; Table 17 study, 30 nmol/kg): -0.7 ± 0.3 g | Relative body weight change at termination ([2]; Table 17 study, 30 nmol/kg): 77.9 ± 0.7 %

CC[C@H](C)[C@H](N)C(=O)N[C@H](C(=O)N[C@@H](CC(C)C)C(=O)N[C@@H](CO)C(=O)N[C@@H](CC(C)C)C(=O)N[C@@H](CC(=O)O)C(=O)N[C@H](C(=O)N1CCC[C@H]1C(=O)N[C@H](C(=O)NCC(=O)N[C@@H](CC(C)C)C(=O)N[C@@H](CC(C)C)C(=O)N[C@@H](CCC(N)=O)C(=O)N[C@H](C(=O)N[C@@H](CC(C)C)C(=O)N[C@@H](CC(C)C)C(=O)N[C@@H](CCC(=O)O)C(=O)N[C@@H](CCC(N)=O)C(=O)N[C@@H](C)C(=O)N[C@@H](CCCNC(=N)N)C(=O)N[C@@H](C)C(=O)N[C@@H](CCCNC(=N)N)C(=O)N[C@@H](C)C(=O)N[C@@H](C)C(=O)N[C@@H](CCCNC(=N)N)C(=O)N[C@@H](CCC(=O)O)C(=O)N[C@@H](CCC(N)=O)C(=O)N[C@@H](C)C(=O)N[C@@H](CCCCNC(=O)COCCOCCNC(=O)COCCOCCNC(=O)CC[C@H](NC(=O)CC[C@H](NC(=O)CCCCCCCCCCCCCCCCCCC(=O)O)C(=O)O)C(=O)O)C(=O)N[C@H](C(=O)N[C@@H](CC(N)=O)C(=O)N[C@@H](C)C(=O)N[C@@H](CCC(=O)O)C(=O)N[C@H](C(=O)N[C@@H](CC(C)C)C(=O)N[C@@H](C)C(=O)N[C@@H](CCC(=O)O)C(=O)N[C@H](C(N)=O)C(C)C)[C@@H](C)CC)[C@@H](C)O)[C@@H](C)CC)[C@@H](C)CC)C(C)C)C(C)C [SEQ ID NO: 3] (H-IVLSLDVPIGLLQILLEQARARAAREQAK([AEEA-AEEA-γGlu-γGlu-C20 diacid])TNAEILAEV-NH2)
relative body weight [2]: prolonged dose-dependent reduction | Blood HbA1c ([2]; Table 16 study, 10 nmol/kg): 4.3 ± 0.1% | M. Gastrocnemius ([2]; Table 16 study, 10 nmol/kg): 0.17 ± 0.005 g | M. Soleus ([2]; Table 16 study, 10 nmol/kg): 0.011 ± 0.0005 g | BW at termination ([2]; Table 16 study, 10 nmol/kg): 41.9 ± 1.5 g | Fat mass change from baseline ([2]; Table 16 study, 10 nmol/kg): -7.7 ± 0.7 g | Lean mass change from baseline ([2]; Table 16 study, 10 nmol/kg): 1.4 ± 0.3 g | Relative body weight change at termination ([2]; Table 16 study, 10 nmol/kg): 94.3 ± 1.6 % | Blood HbA1c ([2]; Table 16 study, 30 nmol/kg): 4.1 ± 0.1 % | M. Gastrocnemius ([2]; Table 16 study, 30 nmol/kg): 0.17 ± 0.003 g | M. Soleus ([2]; Table 16 study, 30 nmol/kg): 0.012 ± 0.0005 g | BW at termination ([2]; Table 16 study, 30 nmol/kg): 38.2 ± 1.0 g | Fat mass change from baseline ([2]; Table 16 study, 30 nmol/kg): -10.2 ± 0.6 g | Lean mass change from baseline ([2]; Table 16 study, 30 nmol/kg): 0.4 ± 0.4 g | Relative body weight change at termination ([2]; Table 16 study, 30 nmol/kg): 89.0 ± 2.2 % | Blood HbA1c ([2]; Table 16 study, 60 nmol/kg): 4.15 ± 0.1 % | M. Gastrocnemius ([2]; Table 16 study, 60 nmol/kg): 0.16 ± 0.004 g | M. Soleus ([2]; Table 16 study, 60 nmol/kg): 0.012 ± 0.0004 g | BW at termination ([2]; Table 16 study, 60 nmol/kg): 38.5 ± 0.6 g | Fat mass change from baseline ([2]; Table 16 study, 60 nmol/kg): -10.8 ± 0.6 g | Lean mass change from baseline ([2]; Table 16 study, 60 nmol/kg): 0.8 ± 0.3 g | Relative body weight change at termination ([2]; Table 16 study, 60 nmol/kg): 89.9 ± 1.9 % | Blood HbA1c ([2]; Table 16 study, 100 nmol/kg): 4.1 ± 0.1 % | M. Gastrocnemius ([2]; Table 16 study, 100 nmol/kg): 0.17 ± 0.003 g | M. Soleus ([2]; Table 16 study, 100 nmol/kg): 0.011 ± 0.0006 g | BW at termination ([2]; Table 16 study, 100 nmol/kg): 37.3 ± 0.6 g | Fat mass change from baseline ([2]; Table 16 study, 100 nmol/kg): -11.2 ± 0.6 g | Lean mass change from baseline ([2]; Table 16 study, 100 nmol/kg): 0.8 ± 0.2 g | Relative body weight change at termination ([2]; Table 16 study, 100 nmol/kg): 87.7 ± 1.3 % | Blood HbA1c ([2]; Table 17 study, 30 nmol/kg): 4.2 ± 0.1 % | M. Gastrocnemius ([2]; Table 17 study, 30 nmol/kg): 0.19 ± 0.003* * g | M. Soleus ([2]; Table 17 study, 30 nmol/kg): 0.013 ± 0.0006 g | Body weight at termination ([2]; Table 17 study, 30 nmol/kg): 39.3 ± 0.9 g | Fat mass change from baseline ([2]; Table 17 study, 30 nmol/kg): -9.5 ± 0.6 g | Lean mass change from baseline ([2]; Table 17 study, 30 nmol/kg): -0.2 ± 0.2 g | Relative body weight change at termination ([2]; Table 17 study, 30 nmol/kg): 82.4 ± 1.6 %
